The target of this test is Human TRPA1 (Homo sapiens, UniProt O75762). The test can be described thus: Assay 1: In vitro cellular testing of TRPA1 modulation (CHO-TREx, Fluo-3 calcium fluorescence, AITC agonist). In kind it is cell-based. The arrangement: expressed in transfected cells; host or cells: CHO-TREx cells (Invitrogen), vector pcDNA4/TO. Particulars: CHO-TREx cells expressing human TRPA1; Fluo-3 fluorescence (FLIPR/Tetra); agonist 15 μM allyl isothiocyanate (AITC); 30 minute antagonist incubation. In outline: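 Antagonist potency is the 50% reduction of the AITC (15 μM) calcium response, Hill-fitted against no-antagonist and 10 μM ruthenium red controls. Fluo-3-loaded (4 μM) CHO-TREx cells with tetracycline-inducible human TRPA1 got compound in HEPES saline pH 7.4 for 30 min, usually from 10 μM in three-fold dilutions.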
Human TRPA1, sequence (O75762 whole entry): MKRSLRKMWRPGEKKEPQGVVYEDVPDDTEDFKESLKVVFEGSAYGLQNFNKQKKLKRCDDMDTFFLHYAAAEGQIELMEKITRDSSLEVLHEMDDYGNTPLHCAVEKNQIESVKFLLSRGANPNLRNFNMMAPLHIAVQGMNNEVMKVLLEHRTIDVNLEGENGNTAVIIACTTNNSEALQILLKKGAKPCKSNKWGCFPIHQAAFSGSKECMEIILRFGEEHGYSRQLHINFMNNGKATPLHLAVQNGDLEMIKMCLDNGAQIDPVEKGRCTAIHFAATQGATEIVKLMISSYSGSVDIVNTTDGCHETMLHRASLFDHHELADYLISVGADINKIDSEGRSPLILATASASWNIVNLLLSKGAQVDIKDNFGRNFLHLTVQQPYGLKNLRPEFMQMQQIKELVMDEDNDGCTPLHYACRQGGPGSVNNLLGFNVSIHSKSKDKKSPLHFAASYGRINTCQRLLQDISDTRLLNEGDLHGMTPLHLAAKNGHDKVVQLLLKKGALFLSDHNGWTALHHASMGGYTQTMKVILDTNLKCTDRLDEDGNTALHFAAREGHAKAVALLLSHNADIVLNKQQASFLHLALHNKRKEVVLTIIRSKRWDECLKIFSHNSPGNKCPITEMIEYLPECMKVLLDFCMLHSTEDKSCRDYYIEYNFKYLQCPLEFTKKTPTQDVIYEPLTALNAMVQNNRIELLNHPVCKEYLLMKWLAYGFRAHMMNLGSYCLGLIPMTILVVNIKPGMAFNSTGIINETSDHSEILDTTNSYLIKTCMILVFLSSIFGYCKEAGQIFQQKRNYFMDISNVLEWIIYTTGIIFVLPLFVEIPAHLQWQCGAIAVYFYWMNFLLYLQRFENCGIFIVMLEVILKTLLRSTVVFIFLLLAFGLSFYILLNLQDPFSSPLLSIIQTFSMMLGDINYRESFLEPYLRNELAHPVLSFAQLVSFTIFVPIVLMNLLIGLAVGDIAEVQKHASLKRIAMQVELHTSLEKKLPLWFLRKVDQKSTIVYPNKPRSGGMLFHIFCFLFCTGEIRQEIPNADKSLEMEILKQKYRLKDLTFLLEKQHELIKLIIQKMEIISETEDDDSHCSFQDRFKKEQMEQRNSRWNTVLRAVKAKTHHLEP

As for `N#Cc1ccc(-c2cccc(CNC(=O)[C@@H]3CCCN3S(=O)(=O)c3ccc(F)cc3)c2)cc1` [Example 86, 1-(4-Fluoro-benzenesulfonyl)-pyrrolidine-2S-carboxylic acid (4′-cyano-biphenyl-3-ylmethyl)-amide], the IC50 was 85 nM. Then `Cc1ccc(-c2cccc(CNC(=O)[C@@H]3CCCN3S(=O)(=O)c3ccc(F)cc3)c2)cn1` [Example 87, 1-(4-Fluorobenzenesulfonyl)-pyrrolidine-2S-carboxylic acid 3-(6-methylpyridin-3-yl)-benzyl amide], with 1790 nM; and `O=C(NCc1cccc(-c2ccc(C(F)(F)F)nc2)c1)[C@@H]1CCCN1S(=O)(=O)c1ccc(F)cc1` [Example 88, 1-(4-Fluorobenzenesulfonyl)-pyrrolidine-2S-carboxylic acid 3-(6-trifluoromethylpyridin-3-yl)-benzyl amide], with 17 nM; and `CC(=O)c1ccc(-c2cccc(CNC(=O)[C@@H]3CCCN3S(=O)(=O)c3ccc(F)cc3)c2)cc1` [Example 89, 1-(4-Fluorobenzenesulfonyl)-pyrrolidine-2S-carboxylic acid (4′-acetylbiphenyl-3-ylmethyl)-amide], with 844 nM.

For `COc1ccc(-c2cccc(CNC(=O)[C@@H]3CCCN3S(=O)(=O)c3ccc(F)cc3)c2)nc1` [Example 90, 1-(4-Fluorobenzenesulfonyl)-pyrrolidine-2S-carboxylic acid 3-(5-methoxypyridin-2-yl)-benzylamide], the IC50 is 8300 nM. Consider `O=C(NCc1cccc(-c2ccc(Cl)cn2)c1)[C@@H]1CCCN1S(=O)(=O)c1ccc(F)cc1` [Example 91, 1-(4-Fluorobenzenesulfonyl)-pyrrolidine-2S-carboxylic acid 3-(5-chloropyridin-2-yl)-benzylamide], for which the IC50 was 175 nM.

Regarding `O=C(NCc1cccc(-c2ccc(C(F)(F)F)cn2)c1)[C@@H]1CCCN1S(=O)(=O)c1ccc(F)cc1` [Example 92, 1-(4-Fluorobenzenesulfonyl)-pyrrolidine-2S-carboxylic acid 3-(5-trifluoromethylpyridin-2-yl)-benzylamide], the IC50 amounted to 17 nM.

As for `CN(C)c1ccc(-c2cccc(CNC(=O)[C@@H]3CCCN3S(=O)(=O)c3ccc(F)cc3)c2)cc1` [Example 93, 1-(4-Fluorobenzenesulfonyl)-pyrrolidine-2S-carboxylic acid (4′-dimethylaminobiphenyl-3-ylmethyl)-amide], the IC50 was determined as 86 nM.

`O=C(NCc1cccc(-c2ccc(N3CCOCC3)cc2)c1)[C@@H]1CCCN1S(=O)(=O)c1ccc(F)cc1` [Example 94, 1-(4-Fluorobenzenesulfonyl)-pyrrolidine-2S-carboxylic acid (4′-morpholin-4-yl-biphenyl-3-ylmethyl)-amide]: the IC50 stood at 1630 nM. The value for `Cn1ccc2cc(-c3cccc(CNC(=O)[C@@H]4CCCN4S(=O)(=O)c4ccc(F)cc4)c3)ccc21` [Example 96, 1-(4-Fluoro-benzenesulfonyl)-pyrrolidine-2S-carboxylic acid 3-(1-methyl-1H-indol-5-yl)-benzylamide] was 432 nM.

Turning to `O=C(NCc1cccc(-c2ccc(N3CCOCC3)nc2)c1)[C@@H]1CCCN1S(=O)(=O)c1ccc(F)cc1` [Example 97, 1-(4-Fluorobenzenesulfonyl)-pyrrolidine-2S-carboxylic acid 3-(6-morpholin-4-yl-pyridin-3-yl)-benzylamide], the IC50 was 1710 nM. Turning to `O=C(NCc1cccc(-c2ccccc2)c1)[C@@H]1CCCN1S(=O)(=O)c1ccc(F)cc1` [Example 98, 1-(4-Fluorobenzenesulfonyl)-pyrrolidine-2S-carboxylic acid (biphenyl-3-ylmethyl)-amide], the IC50 amounted to 381 nM.

For `O=C(NCc1cccc(-c2ccc3cc[nH]c3c2)c1)[C@@H]1CCCN1S(=O)(=O)c1ccc(F)cc1` [Example 101, 1-(4-Fluorobenzenesulfonyl)-pyrrolidine-2S-carboxylic acid 3-(1H-indol-6-yl)-benzylamide], the IC50 came out at 4050 nM. The value for `O=C(NCc1cccc(-c2ccc(CN3CCOCC3)cc2)c1)[C@@H]1CCCN1S(=O)(=O)c1ccc(F)cc1` [Example 102, 1-(4-Fluorobenzenesulfonyl)-pyrrolidine-2S-carboxylic acid (4′-morpholin-4-ylmethylbiphenyl-3-ylmethyl)-amide] was 1700 nM; that for `O=C(NCc1cccc(-c2ccc(N3CCCCC3)cc2)c1)[C@@H]1CCCN1S(=O)(=O)c1ccc(F)cc1` [Example 103, 1-(4-Fluoro-benzenesulfonyl)-pyrrolidine-2S-carboxylic acid (4′-piperidin-1-yl-biphenyl-3-ylmethyl)-amide] was 252 nM.

Take `CN(C)c1ccc(-c2cccc(CNC(=O)[C@@H]3CCCN3S(=O)(=O)c3ccc(F)cc3)c2)cn1` [Example 104, 1-(4-Fluorobenzenesulfonyl)-pyrrolidine-2S-carboxylic acid 3-(6-dimethylaminopyridin-3-yl)-benzylamide]: the IC50 was found to be 460 nM. As for `O=C(NCc1cccc(-c2cnc3ccccc3c2)c1)[C@@H]1CCCN1S(=O)(=O)c1ccc(F)cc1` [Example 105], the IC50 was determined as 1030 nM.

As for `O=C(NCc1cccc(-c2ccc3ncccc3c2)c1)[C@@H]1CCCN1S(=O)(=O)c1ccc(F)cc1` [Example 106, 1-(4-Fluoro-benzenesulfonyl)-pyrrolidine-2S-carboxylic acid 3-quinolin-6-yl-benzylamide], the IC50 was found to be 594 nM. Consider `O=C(NCc1cccc(-c2ccc3ccccc3n2)c1)[C@@H]1CCCN1S(=O)(=O)c1ccc(F)cc1` [Example 107, 1-(4-Fluoro-benzenesulfonyl)-pyrrolidine-2S-carboxylic acid 3-quinolin-2-yl-benzylamide], for which the IC50 was determined as 518 nM. The value for `Cn1ccc2ccc(-c3cccc(CNC(=O)[C@@H]4CCCN4S(=O)(=O)c4ccc(F)cc4)c3)cc21` [Example 108, 1-(4-Fluorobenzenesulfonyl)-pyrrolidine-2S-carboxylic acid 3-(1-methyl-1H-indol-6-yl)-benzylamide] was 2530 nM; that for `O=C(NCc1cccc(-c2ccc(C(F)(F)F)cc2)c1)[C@@H]1[C@H]2C[C@H]2CN1S(=O)(=O)c1ccc(F)cc1` [Example 109, 3-(4-Fluorobenzenesulfonyl)-3-aza-1S,5R-bicyclo[3.1.0]hexane-2S-carboxylic acid (4′-trifluoromethylbiphenyl-3-ylmethyl)-amide] was 319 nM; that for `O=C(NCc1cccc(-c2ccc(C(F)(F)F)cc2)c1)[C@@H]1[C@H]2C[C@H]2CN1S(=O)(=O)c1ccc(Cl)s1` [Example 110, 3-(5-Chlorothiophene-2-sulfonyl)-3-aza-1S,5R-bicyclo[3.1.0]hexane-2S-carboxylic acid (4′-trifluoromethylbiphenyl-3-ylmethyl)-amide] was 92 nM.

As for `O=C(NCc1cccc(-c2ccc(C(F)(F)F)cc2)c1)[C@@H]1C=CCN1S(=O)(=O)c1ccc(F)cc1` [Example 111, 1-(4-Fluorobenzenesulfonyl)-2,5-dihydro-1H-pyrrole-2S-carboxylic acid (4′-trifluoromethylbiphenyl-3-ylmethyl)-amide], the IC50 amounted to 14 nM. As for `O=C(NCc1cccc(-c2ccc(C(F)(F)F)cc2)c1)[C@@H]1C=CCN1S(=O)(=O)c1ccc(Cl)s1` [Example 112, 1-(5-Chlorothiophene-2-sulfonyl)-2,5-dihydro-1H-pyrrole-2S-carboxylic acid (4′-trifluoromethylbiphenyl-3-ylmethyl)-amide], the IC50 was 11 nM. For the compound `C[C@H](NC(=O)[C@@H]1CCCN1S(=O)(=O)c1ccc(F)cc1)c1cccc(-c2ccc(C(F)(F)F)cc2)c1` [Example 113, (1S,2S)-1-(4-Fluoro-benzenesulfonyl)-pyrrolidine-2-carboxylic acid [1-(4′-trifluoromethyl-biphenyl-3-yl)-ethyl]-amide], the IC50 stood at 62 nM. Then `C[C@@H](NC(=O)[C@@H]1CCCN1S(=O)(=O)c1ccc(F)cc1)c1cccc(-c2ccc(C(F)(F)F)cc2)c1` [Example 114, (1R,2S)-1-(4-Fluoro-benzenesulfonyl)-pyrrolidine-2-carboxylic acid [1-(4′-trifluoromethyl-biphenyl-3-yl)ethyl]-amide], with 2930 nM; and `C[C@H](NC(=O)[C@@H]1CCCN1S(=O)(=O)c1ccc(Cl)s1)c1cccc(-c2ccc(C(F)(F)F)cc2)c1` [Example 115, (1S,2S)-1-(5-Chloro-thiophene-2-sulfonyl)-pyrrolidine-2-carboxylic acid [1-(4′-trifluoromethylbiphenyl-3-yl)ethyl]-amide], with 15 nM. Regarding `C[C@@H](NC(=O)[C@@H]1CCCN1S(=O)(=O)c1ccc(Cl)s1)c1cccc(-c2ccc(C(F)(F)F)cc2)c1` [Example 116, (1R,2S)-1-(5-Chloro-thiophene-2-sulfonyl)-pyrrolidine-2-carboxylic acid [1-(4′-trifluoromethylbiphenyl-3-yl)ethyl]-amide], the IC50 was found to be 386 nM. Then `CC(C)(NC(=O)[C@@H]1CCCN1S(=O)(=O)c1ccc(Cl)s1)c1cccc(-c2ccc(C(F)(F)F)cc2)c1` [Example 118, (2S)-1-(5-Chloro-thiophene-2-sulfonyl)-pyrrolidine-2-carboxylic acid [1-methyl-1-(4′-trifluoromethyl-biphenyl-3-yl)ethyl]-amide], with 5770 nM; and `O=C(NCc1cccc(-c2ccc(C(F)(F)F)cc2)c1)[C@@H]1CC(F)(F)CN1S(=O)(=O)c1ccc(F)cc1` [Example 119, (2S)-4,4-Difluoro-1-(4-fluoro-benzenesulfonyl)-pyrrolidine-2-carboxylic acid (4′-trifluoromethyl-biphenyl-3-ylmethyl)-amide], with 47 nM.

As a reminder, the IC50 is the concentration at which inhibition is half-maximal.
